Reference: patent US5221606A, “Reagent and kit for enzyme assay comprising a substrate consonant with given enzyme to be assayed” (King's College London, priority 1987, dated 1993)
Where a name gives a salt, the structure may show the parent alone.

Experiments:
carboxyesterase = assay: substrate test with carboxyesterase; format: biochemical
Protocol: The serum samples were diluted by a factor of 10 prior to the assay. The substrate solution and the diluted sera were then preincubated at 37° C. in a water bath. Aliquots (0.75 ml) of the substrate solution were then pipetted into small plastic tubes (2 ml capacity), and 0.05 ml samples of the sera were added to each of the substrate aliquots and shaken vigorously to ensure adequate mixing. A blank was run by substituting water (0.05 ml) for the serum. The reaction was stopped after 10 min by the addition of the stopping buffer (0.25 ml) [prepared by dissolving DABCO (22.4 g) in water (200 ml) and adjusting the pH to 10 by the addition of a little conc. hydrochloric acid. The resulting mixture was then made up to 1000 ml with acetone]. […] [formula] where t=time of incubation in hours
Otherwise it was carried out in exactly the same ways as above

[1] = solubility in water or aqueous buffer
E. Coli β-galactosidase = E. Coli β-galactosidase (Escherichia coli, UniProt P00722); assay: substrate test with β-galactosidase; format: biochemical
alkaline phosphatase = assay: substrate test with alkaline phosphatase; format: biochemical
[2] = E. coli β-galactosidase, unit inferred

Sequence of E. Coli β-galactosidase (P00722 2-1024): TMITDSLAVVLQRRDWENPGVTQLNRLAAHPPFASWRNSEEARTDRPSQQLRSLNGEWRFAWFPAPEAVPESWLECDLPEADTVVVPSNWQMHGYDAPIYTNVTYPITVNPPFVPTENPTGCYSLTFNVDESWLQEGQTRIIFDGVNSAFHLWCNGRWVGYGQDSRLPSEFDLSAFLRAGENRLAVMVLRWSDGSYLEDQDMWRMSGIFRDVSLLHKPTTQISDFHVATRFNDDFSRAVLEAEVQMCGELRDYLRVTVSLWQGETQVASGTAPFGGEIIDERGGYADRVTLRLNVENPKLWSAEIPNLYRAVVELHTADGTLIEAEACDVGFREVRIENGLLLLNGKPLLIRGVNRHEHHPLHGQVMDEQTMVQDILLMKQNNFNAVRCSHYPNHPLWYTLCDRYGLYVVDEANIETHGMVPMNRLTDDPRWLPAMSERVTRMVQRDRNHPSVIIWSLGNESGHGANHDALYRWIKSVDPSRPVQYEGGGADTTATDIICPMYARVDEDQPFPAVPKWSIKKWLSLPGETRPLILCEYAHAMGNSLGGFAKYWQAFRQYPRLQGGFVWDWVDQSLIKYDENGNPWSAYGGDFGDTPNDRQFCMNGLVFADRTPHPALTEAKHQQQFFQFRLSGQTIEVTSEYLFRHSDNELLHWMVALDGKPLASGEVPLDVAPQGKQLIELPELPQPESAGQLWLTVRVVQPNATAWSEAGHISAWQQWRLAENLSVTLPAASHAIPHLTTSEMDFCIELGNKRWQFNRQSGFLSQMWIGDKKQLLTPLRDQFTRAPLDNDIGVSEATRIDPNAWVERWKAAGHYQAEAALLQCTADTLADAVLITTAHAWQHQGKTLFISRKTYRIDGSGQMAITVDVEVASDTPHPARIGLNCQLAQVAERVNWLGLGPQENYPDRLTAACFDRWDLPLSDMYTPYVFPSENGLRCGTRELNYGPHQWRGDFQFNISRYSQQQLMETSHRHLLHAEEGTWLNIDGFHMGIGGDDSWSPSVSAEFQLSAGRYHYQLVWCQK

| Compound | quality as substrate for / cleavage by carboxyesterase (carboxyesterase) | solubility in water [1] | quality as substrate for E. Coli β-galactosidase (E. Coli β-galactosidase) | further results |
| --- | --- | --- | --- | --- |
| 2-[2-(4-Benzoyloxy-3-methoxyphenyl)-vinyl-1-methylquinolinium iodide [21e] | readily cleaved |  |  |  |
| CCC(=O)Oc1ccc(C=C2SC(=S)NC2=O)cc1OC [3d, n=1, 5-(4-propanoyloxy-3-methoxyphenylmethylene)-2-thioxothiazolidin-4-one] | cleaved by carboxyesterase | slightly soluble in water |  |  |
| COc1cc(C=C2SC(=S)N(CC(=O)O)C2=O)ccc1O[C@@H]1O[C@H](CO)[C@H](O)[C@H](O)[C@H]1O [4c, Ammonium 5-[4-(β-D-galactopyranosyloxy)-3-methoxyphenyl-methylene]-2-thioxothiazolidin-4-one-3-ethanoate] |  | easily soluble in water | very good substrate |  |
| COc1cc(C=C2SC(=S)N(C)C2=O)ccc1OP(=O)(O)O [9F, 5-(4-Phosphoroyloxy-3-methoxyphenylmethylene)-2-thioxo-3-methylthiazolidine-4-one] |  | very soluble in water |  | quality as substrate for / hydrolysis by alkaline phosphatase (alkaline phosphatase): hydrolysed readily |
| COc1cc(C=C2SC(=S)N(CC(=O)O)C2=O)cc(OC)c1OC(=O)c1ccccc1 [11e] | excellent substrate |  |  |  |
| CCC(=O)Oc1c(OC)cc(C=C2SC(=S)N(c3ccc(C(=O)O)cc3)C2=O)cc1OC [13d, n=1, 3-(4-carboxyphenyl)-5-(3,5-dimethoxy-4-propanoyloxyphenylmethylene)-2-thioxothiazolidin-4-one] | reacted with carboxyesterase |  |  |  |
| COc1cc(C=C2SC(=S)N(c3ccc(S(=O)(=O)O)cc3)C2=O)cc(OC)c1OC(=O)c1ccccc1 [14e, Potassium 5-(4-benzoyloxy-3,5-dimethoxyphenylmethylene) -2-thioxothiazolidin-4-one-3-(phenyl-4-sulphonate)] | hydrolysed by carboxyesterase |  |  |  |
| COc1cc(N2C(=O)C(=Cc3cc(OC)c(OP(=O)(O)O)c(OC)c3)SC2=S)cc(OC)c1OC [15f, 2-Thioxo-3-(3,4,5-trimethoxyphenyl)-5-(3,5-dimethoxy-4-phosphoroyloxyphenylmethylene)-thiazolidin-4-one] |  |  |  | solubility in alkaline buffers ([1]; alkaline buffers (pH 8 etc.)): moderately soluble; quality as substrate for / hydrolysis by alkaline phosphatase (alkaline phosphatase): hydrolysed by alkaline phosphatase |
| COc1cc(C=C2SC(=S)N(C)C2=O)cc(OC)c1OP(=O)(O)O [16f, 5-(4-Phosphoroyloxy-3,5-dimethoxyphenylmethylene)-2-thioxo-3-methylthiazolidine-4-one] |  |  |  | Km (alkaline phosphatase; phosphatase): 330 µM |
| COc1cc(/C=C/c2cc[n+](C)cc2)ccc1O[C@@H]1O[C@H](CO)[C@H](O)[C@H](O)[C@H]1O [19c] |  | fair solubility | substrate |  |
| COc1cc(/C=C/c2ccc3ccccc3[n+]2C)ccc1O[C@@H]1O[C@H](CO)[C@H](O)[C@H](O)[C@H]1O [21c, 2-{2-[4-(β-D-Galactopyranosyloxy)-3-methoxyphenyl]-vinyl}-1-methylquinolinium iodide] |  | very good water solubility | excellent substrate | Km (E. Coli β-galactosidase; [2]): ~200 µM; % of vmax achieved (E. Coli β-galactosidase; at a concentration of 0.5 mM): 90% |
| COc1cc(/C=C/c2ccc3ccccc3[n+]2C)cc(OC)c1O[C@@H]1O[C@H](CO)[C@H](O)[C@H](O)[C@H]1O [22c, 2-{2-[4-(β-D-Galactopyranosyloxy)-3,5-dimethoxyphenyl]-vinyl}-1-methylquinolinium iodide] |  | easily soluble in water | good a substrate |  |
| COc1cc(/C=C/c2ccc3ccccc3[n+]2C)cc(OC)c1OP(=O)(O)O [22f, 2-[2-(4-phosphoroyloxy-3,5-dimethoxyphenyl)-vinyl]-1-methylquinolinium iodide] |  | very soluble in water |  | quality as substrate for / hydrolysis by alkaline phosphatase (alkaline phosphatase): good substrate; % of vmax achieved (alkaline phosphatase; at a concentration of 0.5 mM): 42%; Km (alkaline phosphatase; phosphatase): 680 µM |
| COc1cc(/C=C/c2cc[n+](C)c3ccccc23)ccc1O[C@@H]1O[C@H](CO)[C@H](O)[C@H](O)[C@H]1O [23c, 4-{2-[4-(β-D-Galactopyranosyloxy)-3-methoxyphenyl]-vinyl}-1-methylquinolinium iodide] |  | good water solubility | excellent substrate | Km (E. Coli β-galactosidase; [2]): 62 µM; % of vmax achieved (E. Coli β-galactosidase; at a concentration of 0.5 mM): 95%; substrate inhibition (E. Coli β-galactosidase; at concentrations higher than 0.5 mM): slight substrate inhibition |
| COc1cc(/C=C/c2cc[n+](C)c3ccccc23)cc(OC)c1O[C@@H]1O[C@H](CO)[C@H](O)[C@H](O)[C@H]1O [24c, 4-{2-[4-(β-D-Galactopyranosyloxy)-3,5-dimethoxyphenyl]-vinyl}-1-methylquinolinium iodide] |  | easily soluble in water | good a substrate |  |
| CCC[n+]1ccc(/C=C/c2cc(OC)c(OP(=O)([O-])O)c(OC)c2)c2ccccc21 [25f, 4-[2-(4-Phosphoroyloxy-3,5-dimethoxyphenyl)-vinyl]-1-propylquinolinium] |  | water soluble |  | quality as substrate for / hydrolysis by alkaline phosphatase (alkaline phosphatase): excellent substrate; Km (alkaline phosphatase; alkaline phosphatase, unit inferred): 176 µM; % of vmax achieved (alkaline phosphatase; at a concentration of 1 mM): 86% |
| COc1cc(/C=C/c2sc3ccccc3[n+]2C)ccc1O[C@@H]1O[C@H](CO)[C@H](O)[C@H](O)[C@H]1O [26c, 2-{2-[4-(β-D-Galactopyranosyloxy)-3-methoxyphenyl]-vinyl}-3-methylbenzothiazolium tosylate] |  | very soluble in water | reacted to give an intense violet-red solution | concentration above which substrate inhibition starts to show (E. Coli β-galactosidase): above 0.7 mM; pH optimum (E. Coli β-galactosidase): 6.5; % of vmax achieved (E. Coli β-galactosidase; at a concentration of 1 mM): 95%; Km (E. Coli β-galactosidase; β-D-galactosidase from E. Coli): 230 µM |
| CCN1C(=O)C(=Cc2ccc(OP(=O)(O)O)c(OC)c2)C(=O)N(CC)C1=S [27f] |  | good solubility |  | quality as substrate for / hydrolysis by alkaline phosphatase (alkaline phosphatase): cleaved by alkaline phosphatase |
| CCC(=O)Oc1c(OC)cc(C=C2C(=O)NC(=S)NC2=O)cc1OC [28d, n=1, 4,6-dioxo-5-(4-propanoyloxy-3,5-dimethoxyphenylmethylene)-2-thioxo-1,3-diazacyclohexane] | poor-to-moderate substrate | not particularly good |  |  |
| COc1cc(C=C2C(=O)N(c3ccc(S(=O)(=O)O)cc3)N=C2C)cc(OC)c1OC(=O)c1ccccc1 [29e, Potassium 1-(benzene-4-sulfonate)-4-(4-Benzolyloxy-3,5-dimethoxyphenylmethylene)-3-methyl-5-pyrazalone] | substrate for carboxyesterase |  |  |  |
| COc1cc(C=CC=C2SC(=S)N(CC(=O)O)C2=O)ccc1OC(C)=O [compound 30, Piperidinium 5-[3-(4'-ethanoyloxy-3'-methoxyphenyl)-prop-2-enylidene]-2-thioxothiazolidin-4-one-3-ethanoate] | hydrolysed |  |  |  |
